One block for each compound: values may come before it. Active and inactive are the calls of the source.
Tests used:
[1] = biological target: T1, Sentrin-specific protease 7 (Homo sapiens, UniProt Q9BQF6); assay: SENP7 protease inhibitors, SAR follow-up, biochemical, luminescence (AID 504497); type: functional
T1 sequence (Q9BQF6 whole entry): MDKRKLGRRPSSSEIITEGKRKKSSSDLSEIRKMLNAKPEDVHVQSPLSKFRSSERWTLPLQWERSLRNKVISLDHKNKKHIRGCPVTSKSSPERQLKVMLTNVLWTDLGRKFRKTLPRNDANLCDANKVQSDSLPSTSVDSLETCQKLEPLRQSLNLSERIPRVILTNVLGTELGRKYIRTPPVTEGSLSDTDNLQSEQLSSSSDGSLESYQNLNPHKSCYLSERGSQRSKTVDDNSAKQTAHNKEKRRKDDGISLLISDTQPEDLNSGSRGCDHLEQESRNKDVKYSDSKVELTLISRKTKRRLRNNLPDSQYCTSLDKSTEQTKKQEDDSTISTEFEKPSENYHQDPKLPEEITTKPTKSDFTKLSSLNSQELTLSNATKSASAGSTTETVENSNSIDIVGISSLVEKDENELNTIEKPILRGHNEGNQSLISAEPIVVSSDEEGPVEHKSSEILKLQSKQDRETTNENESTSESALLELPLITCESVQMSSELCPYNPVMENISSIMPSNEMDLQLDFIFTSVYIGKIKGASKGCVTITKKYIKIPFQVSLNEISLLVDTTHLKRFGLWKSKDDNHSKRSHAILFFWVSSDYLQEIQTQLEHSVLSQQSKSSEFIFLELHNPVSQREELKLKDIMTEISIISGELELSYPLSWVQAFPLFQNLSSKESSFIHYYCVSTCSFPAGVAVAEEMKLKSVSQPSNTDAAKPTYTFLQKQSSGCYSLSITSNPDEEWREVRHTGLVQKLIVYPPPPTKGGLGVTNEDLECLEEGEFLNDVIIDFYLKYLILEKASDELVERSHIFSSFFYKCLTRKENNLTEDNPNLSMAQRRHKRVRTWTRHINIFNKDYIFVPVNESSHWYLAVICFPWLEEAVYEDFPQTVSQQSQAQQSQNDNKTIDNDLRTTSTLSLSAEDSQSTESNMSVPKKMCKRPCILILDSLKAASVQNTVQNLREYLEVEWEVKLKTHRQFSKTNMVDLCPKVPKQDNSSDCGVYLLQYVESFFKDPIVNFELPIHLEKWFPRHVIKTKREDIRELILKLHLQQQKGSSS

[2] = biological target: T2, Microphthalmia-associated transcription factor (Homo sapiens, UniProt O75030); assay: TRPM1 promoter luciferase signal decrease, dose response, MITF inhibitor project, cell-based, SK-MEL-5, cherry-picked, set 3 (AID 493073); type: functional
T2 sequence (O75030 whole entry): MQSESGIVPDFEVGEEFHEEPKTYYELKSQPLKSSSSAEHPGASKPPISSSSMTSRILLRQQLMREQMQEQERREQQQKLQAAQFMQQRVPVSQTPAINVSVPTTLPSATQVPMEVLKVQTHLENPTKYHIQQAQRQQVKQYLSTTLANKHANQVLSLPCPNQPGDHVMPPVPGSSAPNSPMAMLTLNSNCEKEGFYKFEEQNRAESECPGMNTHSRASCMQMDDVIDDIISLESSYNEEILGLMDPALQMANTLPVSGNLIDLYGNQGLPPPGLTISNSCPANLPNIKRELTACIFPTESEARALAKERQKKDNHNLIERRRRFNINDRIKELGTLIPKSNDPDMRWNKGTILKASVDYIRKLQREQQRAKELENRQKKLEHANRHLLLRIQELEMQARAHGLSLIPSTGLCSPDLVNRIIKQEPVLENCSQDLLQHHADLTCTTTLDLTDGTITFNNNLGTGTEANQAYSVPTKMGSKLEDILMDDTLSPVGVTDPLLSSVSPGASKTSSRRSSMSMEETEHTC

[3] = biological target: T3, Caspase-7 (Homo sapiens, UniProt P55210); assay: human caspase-7 inhibitors, dose response, selectivity assay for caspase-6 inhibitor project, biochemical, DEVD-R110 fluorescence, cherry-pick (AID 743295)
T3 sequence (P55210 whole entry): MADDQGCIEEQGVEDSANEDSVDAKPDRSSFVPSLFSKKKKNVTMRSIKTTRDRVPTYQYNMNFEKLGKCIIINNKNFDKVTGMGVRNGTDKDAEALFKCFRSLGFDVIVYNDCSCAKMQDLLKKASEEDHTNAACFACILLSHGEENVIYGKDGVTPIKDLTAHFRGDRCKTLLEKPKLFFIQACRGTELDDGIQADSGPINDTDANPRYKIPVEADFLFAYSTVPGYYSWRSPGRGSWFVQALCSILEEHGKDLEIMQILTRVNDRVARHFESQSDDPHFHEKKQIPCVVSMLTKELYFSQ

[4] = biological target: Megakaryocyte-associated tyrosine-protein kinase (Homo sapiens, UniProt P42679); type: functional;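 further: affinity measured as one member of a kinase panel (Navigating the Kinome) against MATK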
Chain of Megakaryocyte-associated tyrosine-protein kinase (P42679 whole entry): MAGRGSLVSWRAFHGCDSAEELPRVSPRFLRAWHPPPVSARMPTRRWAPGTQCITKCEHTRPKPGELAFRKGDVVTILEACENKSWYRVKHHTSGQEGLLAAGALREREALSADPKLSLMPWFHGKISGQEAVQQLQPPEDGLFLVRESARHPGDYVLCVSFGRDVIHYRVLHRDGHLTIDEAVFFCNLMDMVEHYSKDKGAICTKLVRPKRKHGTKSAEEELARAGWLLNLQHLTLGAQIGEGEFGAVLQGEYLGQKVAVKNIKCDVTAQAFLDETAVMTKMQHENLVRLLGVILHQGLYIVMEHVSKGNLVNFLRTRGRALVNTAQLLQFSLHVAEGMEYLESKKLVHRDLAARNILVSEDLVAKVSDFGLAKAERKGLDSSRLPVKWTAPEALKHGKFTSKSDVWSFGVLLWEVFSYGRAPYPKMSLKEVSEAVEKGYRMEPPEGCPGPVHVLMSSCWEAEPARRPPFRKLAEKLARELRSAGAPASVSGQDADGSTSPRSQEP

[5] = biological target: Protein kinase C zeta type (Homo sapiens, UniProt Q05513); type: functional;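 further: measured as one member of a broad kinase profiling panel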
[6] = biological target: Protein kinase C delta type (Homo sapiens, UniProt Q05655); type: functional
Chain of Protein kinase C delta type (Q05655 whole entry): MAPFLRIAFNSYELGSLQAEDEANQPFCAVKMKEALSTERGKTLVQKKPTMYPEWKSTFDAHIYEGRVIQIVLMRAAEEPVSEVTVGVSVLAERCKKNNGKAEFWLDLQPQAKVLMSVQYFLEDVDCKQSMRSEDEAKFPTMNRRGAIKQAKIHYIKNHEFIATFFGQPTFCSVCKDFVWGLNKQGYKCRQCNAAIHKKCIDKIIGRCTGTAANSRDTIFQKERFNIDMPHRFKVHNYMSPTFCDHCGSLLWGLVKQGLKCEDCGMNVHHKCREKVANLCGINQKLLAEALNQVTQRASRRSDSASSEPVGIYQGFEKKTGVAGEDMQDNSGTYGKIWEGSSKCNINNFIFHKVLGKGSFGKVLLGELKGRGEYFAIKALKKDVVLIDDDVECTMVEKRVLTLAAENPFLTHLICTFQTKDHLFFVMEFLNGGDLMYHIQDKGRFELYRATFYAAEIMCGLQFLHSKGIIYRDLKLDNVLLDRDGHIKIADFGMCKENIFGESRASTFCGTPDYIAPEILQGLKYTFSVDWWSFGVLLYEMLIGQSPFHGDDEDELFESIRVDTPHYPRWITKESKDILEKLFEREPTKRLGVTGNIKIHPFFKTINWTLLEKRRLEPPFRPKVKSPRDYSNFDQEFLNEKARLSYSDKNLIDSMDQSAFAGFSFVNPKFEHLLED

[7] = biological target: Testis-specific serine/threonine-protein kinase 2 (Homo sapiens, UniProt Q96PF2); type: functional;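 further: part of the Navigating the Kinome panel, target entry STK22B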
Chain of Testis-specific serine/threonine-protein kinase 2 (Q96PF2 whole entry): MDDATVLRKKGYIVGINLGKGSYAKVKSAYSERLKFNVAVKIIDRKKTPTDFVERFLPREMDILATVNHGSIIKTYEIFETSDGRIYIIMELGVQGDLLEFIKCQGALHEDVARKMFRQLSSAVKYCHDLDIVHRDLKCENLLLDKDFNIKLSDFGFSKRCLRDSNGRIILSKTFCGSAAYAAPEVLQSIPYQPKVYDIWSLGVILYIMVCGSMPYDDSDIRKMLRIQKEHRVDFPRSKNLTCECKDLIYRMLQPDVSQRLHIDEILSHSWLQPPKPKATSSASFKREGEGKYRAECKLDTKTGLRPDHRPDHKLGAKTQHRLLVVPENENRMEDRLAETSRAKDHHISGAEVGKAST

[8] = biological target: Serine/threonine-protein kinase Chk2 (Homo sapiens, UniProt O96017); type: functional;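 further: CHEK2 entry within a kinome-wide screening panel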
Chain of Serine/threonine-protein kinase Chk2 (O96017 whole entry): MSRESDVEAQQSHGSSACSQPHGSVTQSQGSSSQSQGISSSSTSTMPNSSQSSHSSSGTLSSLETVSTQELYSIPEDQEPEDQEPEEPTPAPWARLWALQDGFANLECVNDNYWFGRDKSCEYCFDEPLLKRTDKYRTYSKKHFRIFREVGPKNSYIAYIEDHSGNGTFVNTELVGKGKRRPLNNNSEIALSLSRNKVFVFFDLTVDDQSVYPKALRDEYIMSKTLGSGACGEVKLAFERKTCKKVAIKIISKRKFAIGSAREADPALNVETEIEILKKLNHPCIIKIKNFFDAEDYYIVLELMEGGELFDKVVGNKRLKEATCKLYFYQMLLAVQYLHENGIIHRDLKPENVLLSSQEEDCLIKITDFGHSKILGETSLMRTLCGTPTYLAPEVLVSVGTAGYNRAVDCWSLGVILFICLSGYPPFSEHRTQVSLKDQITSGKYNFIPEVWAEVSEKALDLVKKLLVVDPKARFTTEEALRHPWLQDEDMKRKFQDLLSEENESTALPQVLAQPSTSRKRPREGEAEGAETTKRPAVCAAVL

[9] = biological target: Tyrosine-protein kinase BTK (Homo sapiens, UniProt Q06187); type: functional
[10] = biological target: LIM domain kinase 1 (Homo sapiens, UniProt P53667); assay: Navigating the Kinome. Panel member name: LIMK1; type: functional
[11] = biological target: Serine/threonine-protein kinase pim-3 (Homo sapiens, UniProt Q86V86); type: functional;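 further: value obtained as one member of a broad kinase panel profiling effort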
[12] = biological target: Tyrosine-protein kinase Srms (Homo sapiens, UniProt Q9H3Y6); type: functional;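 further: SRMS measured as one member of a kinome-wide kinase profiling panel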
Chain of Tyrosine-protein kinase Srms (Q9H3Y6 whole entry): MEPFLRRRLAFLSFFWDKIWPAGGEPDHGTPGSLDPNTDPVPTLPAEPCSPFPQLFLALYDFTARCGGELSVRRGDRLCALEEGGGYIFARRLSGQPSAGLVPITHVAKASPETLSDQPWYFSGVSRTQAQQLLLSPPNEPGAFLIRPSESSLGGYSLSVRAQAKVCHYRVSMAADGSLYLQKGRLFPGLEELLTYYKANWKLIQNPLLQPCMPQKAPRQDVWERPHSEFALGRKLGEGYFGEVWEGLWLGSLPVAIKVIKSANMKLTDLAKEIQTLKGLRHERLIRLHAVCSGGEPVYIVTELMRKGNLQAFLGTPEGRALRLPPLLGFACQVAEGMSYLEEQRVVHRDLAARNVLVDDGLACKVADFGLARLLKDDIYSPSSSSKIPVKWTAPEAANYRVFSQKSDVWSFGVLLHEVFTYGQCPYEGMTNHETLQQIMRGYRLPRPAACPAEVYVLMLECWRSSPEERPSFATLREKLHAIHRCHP

[13] = biological target: Dual specificity tyrosine-phosphorylation-regulated kinase 4 (Homo sapiens, UniProt Q9NR20); type: functional
Chain of Dual specificity tyrosine-phosphorylation-regulated kinase 4 (Q9NR20 whole entry): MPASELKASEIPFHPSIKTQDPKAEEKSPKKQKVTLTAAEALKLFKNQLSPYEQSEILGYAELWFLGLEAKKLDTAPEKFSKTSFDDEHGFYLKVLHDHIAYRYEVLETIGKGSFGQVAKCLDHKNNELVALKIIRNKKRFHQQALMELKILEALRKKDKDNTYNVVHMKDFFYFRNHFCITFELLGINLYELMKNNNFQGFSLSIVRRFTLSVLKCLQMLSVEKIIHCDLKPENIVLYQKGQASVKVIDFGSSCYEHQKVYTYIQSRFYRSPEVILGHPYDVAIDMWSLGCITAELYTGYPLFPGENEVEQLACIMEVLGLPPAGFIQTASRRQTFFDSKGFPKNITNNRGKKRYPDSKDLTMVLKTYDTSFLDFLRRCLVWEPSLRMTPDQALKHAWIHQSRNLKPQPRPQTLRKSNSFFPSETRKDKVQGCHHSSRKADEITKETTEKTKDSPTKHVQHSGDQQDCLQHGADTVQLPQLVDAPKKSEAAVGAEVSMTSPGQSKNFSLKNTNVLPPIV

[14] = biological target: Focal adhesion kinase 1 (Homo sapiens, UniProt Q05397); type: functional;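 further: measured as one member of a kinome panel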
Chain of Focal adhesion kinase 1 (Q05397 whole entry): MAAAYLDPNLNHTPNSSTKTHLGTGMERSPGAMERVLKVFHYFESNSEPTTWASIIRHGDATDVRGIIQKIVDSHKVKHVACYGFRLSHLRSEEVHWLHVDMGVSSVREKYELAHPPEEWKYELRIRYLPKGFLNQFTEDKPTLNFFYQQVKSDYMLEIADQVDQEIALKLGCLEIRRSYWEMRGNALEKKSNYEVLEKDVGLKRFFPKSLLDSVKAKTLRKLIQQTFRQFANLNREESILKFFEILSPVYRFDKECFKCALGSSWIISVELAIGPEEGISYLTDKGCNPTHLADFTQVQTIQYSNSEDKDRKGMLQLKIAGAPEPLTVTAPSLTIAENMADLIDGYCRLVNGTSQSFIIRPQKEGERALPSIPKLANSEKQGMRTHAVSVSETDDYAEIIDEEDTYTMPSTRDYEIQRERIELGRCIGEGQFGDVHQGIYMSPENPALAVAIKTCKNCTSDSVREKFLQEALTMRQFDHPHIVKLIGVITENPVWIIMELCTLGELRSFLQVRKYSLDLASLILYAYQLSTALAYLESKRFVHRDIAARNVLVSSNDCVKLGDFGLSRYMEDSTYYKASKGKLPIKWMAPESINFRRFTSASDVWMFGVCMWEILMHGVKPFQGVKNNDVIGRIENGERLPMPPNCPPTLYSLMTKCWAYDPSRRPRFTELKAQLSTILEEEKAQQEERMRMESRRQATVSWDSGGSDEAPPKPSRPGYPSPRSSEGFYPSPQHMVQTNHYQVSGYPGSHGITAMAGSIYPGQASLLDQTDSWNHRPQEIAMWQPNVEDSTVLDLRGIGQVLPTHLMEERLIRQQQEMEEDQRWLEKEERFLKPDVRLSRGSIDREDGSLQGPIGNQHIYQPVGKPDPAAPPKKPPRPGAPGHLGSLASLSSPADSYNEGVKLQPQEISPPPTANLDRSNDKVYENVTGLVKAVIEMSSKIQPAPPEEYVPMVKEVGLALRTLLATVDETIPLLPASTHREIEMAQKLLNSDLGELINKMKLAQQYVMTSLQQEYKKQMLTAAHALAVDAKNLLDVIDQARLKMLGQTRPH

[15] = biological target: Tyrosine-protein kinase Fyn (Homo sapiens, UniProt P06241); type: functional
Chain of Tyrosine-protein kinase Fyn (P06241 whole entry): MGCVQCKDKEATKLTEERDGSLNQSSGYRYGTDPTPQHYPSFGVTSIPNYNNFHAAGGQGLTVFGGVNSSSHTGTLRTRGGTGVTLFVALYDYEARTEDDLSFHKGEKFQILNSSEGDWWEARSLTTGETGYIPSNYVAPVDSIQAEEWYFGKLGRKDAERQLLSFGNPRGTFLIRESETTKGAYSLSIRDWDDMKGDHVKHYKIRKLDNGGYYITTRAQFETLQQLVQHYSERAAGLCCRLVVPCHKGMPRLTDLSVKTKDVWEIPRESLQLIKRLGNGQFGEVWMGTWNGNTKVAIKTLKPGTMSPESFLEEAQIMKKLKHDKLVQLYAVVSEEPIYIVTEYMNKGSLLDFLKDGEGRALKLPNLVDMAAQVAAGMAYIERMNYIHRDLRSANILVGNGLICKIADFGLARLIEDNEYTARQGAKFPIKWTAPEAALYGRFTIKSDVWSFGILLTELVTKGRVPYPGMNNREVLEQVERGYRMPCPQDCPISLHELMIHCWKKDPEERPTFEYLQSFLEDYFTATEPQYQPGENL

[16] = biological target: BDNF/NT-3 growth factors receptor (Homo sapiens, UniProt Q16620); type: functional;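 further: NTRK2 measured as one member of a broad kinome-wide kinase profiling panel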
[17] = biological target: Serine/threonine-protein kinase BRSK1 (Homo sapiens, UniProt Q8TDC3); type: functional;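 further: measured within a kinome-wide kinase panel, with the target listed as KIAA1811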
[18] = biological target: Dual specificity tyrosine-phosphorylation-regulated kinase 1A (Homo sapiens, UniProt Q13627); type: functional;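 further: measured against DYRK1A as one member of a broad kinome profiling panel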
[19] = biological target: Mitogen-activated protein kinase 14 (Homo sapiens, UniProt Q16539); type: functional;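 further: part of a kinome-wide panel, MAPK14 entry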

SMILES: COc1cc(Br)c(C(=O)c2nccc3cc(OC)c(OC)cc23)cc1OC
- IC50 [1]: 2.99 µM (active)

SMILES: Cc1c(NC(=O)C(C)OC(=O)c2ccc([N+](=O)[O-])s2)c(=O)n(-c2ccccc2)n1C (centres undefined)
- AC50 [2]: 34.1 µM (active)
- AC50 [3]: 17.5 µM (active)

- Ki [4]: > 2 µM (inactive)
- Ki [5]: > 7.94 µM (inactive)
- Ki [6]: 0.158 µM (active)
- Ki [7]: > 1.58 µM (inactive)
- Ki [8]: > 1.58 µM (inactive)
- Ki [9]: > 3.98 µM (inactive)
- Ki [10]: 1 µM (active)
- Ki [11]: > 7.94 µM (inactive)
- Ki [12]: > 1.58 µM (inactive)
- Ki [13]: > 7.94 µM (inactive)
- Ki [14]: > 3.16 µM (inactive)
- Ki [15]: > 3.98 µM (inactive)
- Ki [16]: > 3.16 µM (inactive)
- Ki [17]: 3.98 µM (active)
- Ki [18]: > 1.26 µM (inactive)
- Ki [19]: > 3.98 µM (inactive)
SMILES: CC(N)C1CCC(C(=O)Nc2ccnc3[nH]ccc23)CC1 (centres undefined)
